The values that follow are results of earlier work, collected in US11731951B1, “Water reactivity with natural products” (King Faisal University, priority 2023, dated 2023).

This series relates to Gram-positive bacteria, including multi-resistant and vancomycin-resistant strains. The following applies: from "Abyssomicins—A 20-Year Retrospective View".

For `CC1CC(C)C(=O)C2=C3OC4C(C)CC3(OC2=O)C(/C=C\C1=O)C4O` (centres unmarked) [atrop-abyssomicin C], the antibiotic activity entry is on record as “high antibiotic activity”. With `C[C@@H]1C[C@H](C)C(=O)/C=C/C2[C@@H](O)[C@H]3OC4=C(C(=O)O[C@@]42C[C@H]3C)C1=O` [abyssomicin C], the antibiotic activity entry was “high antibiotic activity”.
